# Test results published in paper PMC5531494, “Target specificity, in vivo pharmacokinetics, and efficacy of the putative STAT3 inhibitor LY5 in osteosarcoma, Ewing's sarcoma, and rhabdomyosarcoma” (PLoS ONE, 2017).
# Where two headings read alike, the source gives them in different places.
# Tests used:
# [1] = biological target: T1, STAT1 (Homo sapiens, UniProt P42224); experiment: Cytokine-induced STAT1 phosphorylation in SJSA cells, Western blot; type: cell-based; conditions: induced by IFN-γ, IFN-α, or IL-4
# T1 construct: endogenous in cells; host or cells: SJSA
# Experimental: (§1) Cell lysis, protein isolation and immunoblotting were performed as described previously. Twenty micrograms of protein were resolved using 4–12% Bis-Tris polyacrylamide gels. Gels were transferred to PVDF membranes and subjected to blocking and incubation with primary and secondary antibodies. The primary antibodies used in this study included: phospho-STAT3 (Tyr705, Cell Signaling, Boston, MA and Abcam, Cambridge, MA), total STAT3 (Cell Signaling and Abcam), phospho-STAT1 (Cell Signaling), total STAT1 (Cell Signaling), phospho-STAT2 (Cell Signaling), phospho-STAT4 (Cell Signaling), phospho-STAT6 (Cell Signaling), and GAPDH (Cell Signaling). Protein bands were detected using Western Lightning ® Plus Enhanced Chemiluminescence substrate (Perkin Elmer, Waltham, MA) and HyBlot CL ® Autoradiography film (Denville Scientific, Holliston, MA). The cytokines used in this study included: interferon gamma (IFN-γ, Cell Signaling), interferon alpha (IFN-α, Cell Signaling), interleukin-4 (IL-4, Cell Signaling), interleukin-6 (IL-6, Cell Signaling), and oncostatin M (OSM, Cell Signaling).
# (§2) Fig 1 LY5 inhibits pSTAT3 in sarcoma cell lines. (A) The tumor cell lines RH30, EW8, and RD were treated with increasing concentrations of LY5 for 30 minutes. Cell lysates were collected for Western blotting of p-STAT3, total STAT3, and GAPDH. GAPDH was used as loading control. […]
# [2] = biological target: T2, STAT2 (Homo sapiens, UniProt P52630); experiment: Cytokine-induced STAT2 phosphorylation in SJSA cells, Western blot; type: cell-based; conditions: induced by IFN-γ, IFN-α, or IL-4
# T2 construct: endogenous in cells; host or cells: SJSA
# Experimental: as §1, §2
# [3] = biological target: T3, STAT4 (Homo sapiens, UniProt Q14765); experiment: Cytokine-induced STAT4 phosphorylation in SJSA cells, Western blot; type: cell-based; conditions: induced by IFN-γ, IFN-α, or IL-4
# T3 construct: endogenous in cells; host or cells: SJSA
# Experimental: as §1, §2
# [4] = biological target: T4, STAT3 (Mus musculus, UniProt P42227); experiment: Western blot of pSTAT3 in K7M2 cells; type: cell-based, murine
# T4 construct: endogenous in cells; host or cells: K7M2
# Experimental: Murine K7M2 and human MG63.3 OS cells were treated with increasing concentrations of LY5 for 2 hrs or 7 hrs. Western blotting was performed for pSTAT3 and STAT3 as indicated above to confirm inhibition of STAT3 phosphorylation in the cell lines prior to initiation of the PuMA assay. In addition, a sulforhodamine B colorimetric assay was performed to assess the cytotoxicity of LY5 in K7M2 and MG63.3 cells as previously described.
# MG63.3 and K7M2 cell lines were exposed to increasing concentrations of LY5 to determine the IC50 (A). Western blot analysis was performed to determine the dose and duration of LY5 exposure required to inhibit STAT3 phosphorylation (B-C). Serial imaging of fluorescently labeled MG63.3 and K7M2 cells was performed in ex vivo LY5 treated lung sections (D). Metastatic burden was quantified by evaluation of the percent tumor burden (mean normalized fluorescent area). Data are reported as the mean ± standard deviation. In MG 63.3 experiment, p < 0.0001 Kruskal-Wallis test, p < 0.05 10 μM vs control at days 7, 14, and 21, 10 μM vs 1 μM at days 7, 14, and 21, 50 μM vs control at days 7, 14, and 21, and 50 μM vs 10 μM at days 7, 14, and 21 post-test Dunn. In K7M2 experiment, p < 0.0001 Kruskal-Wallis test, p < 0.05 10 μM vs control at days 14 and 21, 10 μM vs 0.1 μM at days 14 and 21, and 10 μM vs 1 μM at days 14 and 21, post-test Dunn.
# [5] = Protein binding in mice; type: in vitro ADME
# [6] = PK in normal beagle dogs, IV and oral gavage; type: in vivo; conditions: plasma; for bioavailability: dog, po, read-out: F (oral bioavailability)
# Experimental: LY5 was evaluated in two normal purpose-bred beagle dogs (female 8.8 kg; male 11.2 kg) receiving a single dose of 1mg/kg LY5 IV then orally by gavage 7 days later to establish the PK profile and assess the spectrum of clinical toxicities associated with LY5 administration. The oral dosing was repeated in the fed and fasted state. The starting dose was determined based on allometric scaling from the maximal tolerated dose studies performed in mice. Dogs were washed out for 30 days, and then given a dose of 25 mg in a capsule orally, followed by a 50 mg capsule dose 14 days later. Full PK sampling was performed over 24 hours following each dose of LY5. The dogs received LY5 and were used for the PK analysis but were not euthanized upon conclusion of the study.
# The liquid chromatography-mass spectrometry system utilized for these analyses consisted of a Dionex Ultimate 3000 RSLCnano High Performance Liquid Chromatography system and a Thermo Finnigan Quantum Ultras EMR mass spectrometer with an electrospray ionization source. Positive ionization mode was used for both LY5 and the internal standard, hesperetin. Plasma samples were collected and analyzed by the OSU James Comprehensive Cancer Center Pharmacoanalytical Shared Resource. Pharsight Phoenix WinNonlin software using non-compartmental analysis was used to generate PK parameters including maximum plasma concentration (Cmax), amount of time that drug is present at Cmax (Tmax), and total area under the curve (AUC). AUC all and AUC last were calculated by linear trapezoidal method of concentration-time curve up to the last measured point. AUC inf-obs was calculated by log-linear extrapolation of the terminal phase beyond the last collection time. Bioavailability (F) was calculated for IP and PO administration routes. Plasma stability and liver microsomal stability of LY5 were also assessed through this shared resource.
# [7] = biological target: STAT3 (Homo sapiens, UniProt P40763); experiment: Western blot of basal p-STAT3 (Tyr705) in sarcoma cell lines RH30, EW8, RD; type: cell-based; design: endogenous in cells; conditions: ES, OS and RMS cells, RH30, EW8, RD treated 30 minutes
# Experimental: as §1, §2
# [8] = female, Dog #2, PO fed, 1.28 mg/kg, dog vomited 10 min after dosing
# [9] = female, Dog #2, PO w/ fast, 0.9 mg/kg
# [10] = male, Dog #1, PO fed, 1.28 mg/kg
# [11] = male, Dog #1, PO w/ fast, 0.9 mg/kg
# T4 sequence (P42227 whole entry): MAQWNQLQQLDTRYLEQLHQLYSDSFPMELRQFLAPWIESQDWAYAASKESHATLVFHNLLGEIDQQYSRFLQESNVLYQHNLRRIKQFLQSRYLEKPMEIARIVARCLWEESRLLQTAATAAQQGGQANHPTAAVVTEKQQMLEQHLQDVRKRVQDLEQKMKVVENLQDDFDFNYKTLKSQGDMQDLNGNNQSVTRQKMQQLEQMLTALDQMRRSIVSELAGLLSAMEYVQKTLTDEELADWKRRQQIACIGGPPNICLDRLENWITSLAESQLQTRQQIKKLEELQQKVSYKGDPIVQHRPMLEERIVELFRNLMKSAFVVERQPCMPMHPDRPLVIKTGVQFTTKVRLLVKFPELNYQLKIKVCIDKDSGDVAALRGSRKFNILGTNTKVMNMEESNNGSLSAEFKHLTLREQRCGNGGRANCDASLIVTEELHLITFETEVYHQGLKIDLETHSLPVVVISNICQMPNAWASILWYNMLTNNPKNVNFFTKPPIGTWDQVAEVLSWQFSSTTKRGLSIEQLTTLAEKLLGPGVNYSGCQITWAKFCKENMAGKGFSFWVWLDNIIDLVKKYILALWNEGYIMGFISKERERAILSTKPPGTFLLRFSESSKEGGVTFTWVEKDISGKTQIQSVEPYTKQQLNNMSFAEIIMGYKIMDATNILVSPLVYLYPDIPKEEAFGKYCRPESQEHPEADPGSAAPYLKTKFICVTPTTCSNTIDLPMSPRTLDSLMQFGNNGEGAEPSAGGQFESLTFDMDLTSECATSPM
# T1 sequence (P42224 whole entry): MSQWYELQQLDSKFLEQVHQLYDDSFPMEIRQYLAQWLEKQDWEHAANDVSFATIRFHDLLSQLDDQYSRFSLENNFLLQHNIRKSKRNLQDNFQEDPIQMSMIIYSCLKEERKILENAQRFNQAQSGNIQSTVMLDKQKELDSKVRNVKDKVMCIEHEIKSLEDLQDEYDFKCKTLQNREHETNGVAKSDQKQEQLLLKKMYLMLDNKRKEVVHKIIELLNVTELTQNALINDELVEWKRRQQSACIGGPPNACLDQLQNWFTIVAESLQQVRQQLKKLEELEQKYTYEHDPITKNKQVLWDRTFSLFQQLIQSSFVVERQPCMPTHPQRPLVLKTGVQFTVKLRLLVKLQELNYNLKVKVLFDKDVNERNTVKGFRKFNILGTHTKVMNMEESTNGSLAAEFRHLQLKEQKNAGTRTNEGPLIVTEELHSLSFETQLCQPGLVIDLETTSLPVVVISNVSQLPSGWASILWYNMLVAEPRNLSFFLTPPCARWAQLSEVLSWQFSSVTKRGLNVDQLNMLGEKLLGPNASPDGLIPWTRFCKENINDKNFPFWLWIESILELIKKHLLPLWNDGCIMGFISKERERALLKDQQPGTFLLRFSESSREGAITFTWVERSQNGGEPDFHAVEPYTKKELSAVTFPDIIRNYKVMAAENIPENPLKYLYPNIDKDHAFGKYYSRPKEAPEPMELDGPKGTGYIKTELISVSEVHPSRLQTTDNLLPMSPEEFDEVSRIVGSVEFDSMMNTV
# STAT3 (Homo sapiens, UniProt P40763), sequence (P40763 whole entry): as the sequence (P42227 whole entry) above, with D760E counted along it
# T3 sequence (Q14765 whole entry): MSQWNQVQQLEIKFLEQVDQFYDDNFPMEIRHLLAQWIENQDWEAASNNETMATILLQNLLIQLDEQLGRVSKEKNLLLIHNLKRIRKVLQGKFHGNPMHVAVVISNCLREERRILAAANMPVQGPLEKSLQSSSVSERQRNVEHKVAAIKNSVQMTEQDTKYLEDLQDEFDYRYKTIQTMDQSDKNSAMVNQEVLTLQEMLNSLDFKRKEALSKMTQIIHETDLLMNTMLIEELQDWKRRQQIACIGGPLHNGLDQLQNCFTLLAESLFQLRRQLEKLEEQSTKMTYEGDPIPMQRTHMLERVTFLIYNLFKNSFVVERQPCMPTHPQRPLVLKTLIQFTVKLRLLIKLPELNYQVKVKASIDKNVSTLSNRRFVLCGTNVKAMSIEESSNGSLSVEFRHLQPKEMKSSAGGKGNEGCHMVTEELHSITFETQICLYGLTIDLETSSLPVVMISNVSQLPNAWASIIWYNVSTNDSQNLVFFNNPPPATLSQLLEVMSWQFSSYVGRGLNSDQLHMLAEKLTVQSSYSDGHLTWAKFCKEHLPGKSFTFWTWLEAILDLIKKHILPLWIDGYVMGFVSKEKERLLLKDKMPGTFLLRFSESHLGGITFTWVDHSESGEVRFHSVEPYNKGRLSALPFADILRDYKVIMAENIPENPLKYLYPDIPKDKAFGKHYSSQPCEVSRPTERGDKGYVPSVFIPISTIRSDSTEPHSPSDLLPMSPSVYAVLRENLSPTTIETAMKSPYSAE
# T2 sequence (P52630 whole entry): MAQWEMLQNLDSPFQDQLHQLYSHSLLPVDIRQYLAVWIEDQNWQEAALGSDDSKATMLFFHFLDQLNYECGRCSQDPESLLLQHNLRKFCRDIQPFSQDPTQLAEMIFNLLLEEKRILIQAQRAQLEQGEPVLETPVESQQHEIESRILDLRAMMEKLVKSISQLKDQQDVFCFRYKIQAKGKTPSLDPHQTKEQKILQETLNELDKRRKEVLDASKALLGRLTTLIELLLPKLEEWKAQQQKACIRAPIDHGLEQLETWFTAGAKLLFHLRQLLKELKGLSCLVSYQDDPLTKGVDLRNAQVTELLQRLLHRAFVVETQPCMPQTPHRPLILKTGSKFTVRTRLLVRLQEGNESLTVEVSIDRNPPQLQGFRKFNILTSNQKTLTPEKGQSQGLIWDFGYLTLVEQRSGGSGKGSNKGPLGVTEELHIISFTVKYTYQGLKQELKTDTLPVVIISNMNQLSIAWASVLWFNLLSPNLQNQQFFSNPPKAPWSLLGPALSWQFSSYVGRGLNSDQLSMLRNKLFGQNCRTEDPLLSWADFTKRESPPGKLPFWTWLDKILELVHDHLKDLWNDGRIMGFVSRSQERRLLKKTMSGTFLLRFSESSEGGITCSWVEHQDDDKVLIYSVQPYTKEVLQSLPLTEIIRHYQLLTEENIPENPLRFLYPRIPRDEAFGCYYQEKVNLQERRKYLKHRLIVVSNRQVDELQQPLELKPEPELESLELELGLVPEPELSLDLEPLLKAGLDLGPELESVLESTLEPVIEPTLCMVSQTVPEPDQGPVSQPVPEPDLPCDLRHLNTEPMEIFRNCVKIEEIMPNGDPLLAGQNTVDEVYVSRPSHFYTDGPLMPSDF
smiles,measurement,setting,value
"NS(=O)(=O)c1cccc2c1C(=O)C=C(Nc1cccnc1)C2=O [LY5, 5,8-dioxo-6-(pyridin-3-ylamino)-5,8-dihydronaphthalene-1-sulfonamide]",phosphorylation of STAT1,[1],did not inhibit
same,phosphorylation of STAT2,[2],did not inhibit
same,phosphorylation of STAT4,[3],did not inhibit
same,concentration for complete inhibition of STAT3 in vitro,[4]; K7M2,10 µM
same,exposure time for effective inhibition of STAT3 phosphorylation,"[4]; K7M2, 1 μM LY5",4 h
same,concentration that decreased STAT3 phosphorylation,"[4]; K7M2, 2 hrs treatment",1 µM
same,drug protein-bound,[5],Approximately 90%
same,bioavailability,"[6]; female, 0.9 mg/kg, Dog #2, PO w/ fast (fasted female dog)",44.3%
same,bioavailability,"[6]; female, 1 mg/kg, Dog #2, PO w/ fast (fasted female dog)",44%
same,bioavailability,"[6]; female, 1.28 mg/kg, Dog #2, PO fed, dog vomited 10 min after dosing",5%
same,AUC,"[6]; female, Dog #2, IV, 0.97 mg/kg",3.92 µM·h
same,Cmax,"[6]; female, Dog #2, IV, 0.97 mg/kg",3220 nM
same,AUC,[6]; [8],0.258 µM·h
same,Cmax,[6]; [8],60.4 nM
same,AUC,[6]; [9],1.61 µM·h
same,Cmax,[6]; [9],500 nM
same,bioavailability,"[6]; male, 0.9 mg/kg, Dog #1, PO w/ fast (fasted male dog)",51.6%
same,bioavailability,"[6]; male, 1 mg/kg, Dog #1, PO fed",14%
same,bioavailability,"[6]; male, 1 mg/kg, Dog #1, PO w/ fast (fasted male dog)",52%
same,bioavailability,"[6]; male, 1.28 mg/kg, Dog #1, PO fed",13.7%
same,AUC,"[6]; male, Dog #1, IV, 0.97 mg/kg",5.1 µM·h
same,Cmax,"[6]; male, Dog #1, IV, 0.97 mg/kg",5590 nM
same,AUC,[6]; [10],0.924 µM·h
same,Cmax,[6]; [10],206 nM
same,AUC,[6]; [11],2.44 µM·h
same,Cmax,[6]; [11],1280 nM
same,basal STAT3 phosphorylation at Tyr705,[7],inhibited basal STAT3 phosphorylation
